According to US20100216823A1 (Pfizer Inc., priority 2007, published 2010):

Tests used:
Format in all cases: biochemical
PDE1C = target: T1, PDE1C (Homo sapiens, UniProt Q14123); assay: PDE1C [3H]-cAMP scintillation proximity assay (SPA) enzyme inhibition; conditions: full length PDE1C in cell lysate; 75 nM cAMP; Ki from IC50 by Cheng-Prussof equation
T1 construct: cell lysate containing full length PDE7A, PDE7B and PDE1C enzyme; made in house; host or cells: cell lysate
Procedure: (§1) The ability of the compounds of formula (I) to inhibit PDE7 and PDE1 may be measured using the following assay protocol.
(§2) PDE7A, PDE7B and PDE1C enzymes catalyse the hydrolysis of 3′,5′-cyclic adenosine monophosphate (cAMP) to the 5′ adenosine monophosphate, 5′AMP. In a multiwell plate, PDE enzyme, [^3H]-cAMP and the test compounds, are incubated at room temperature. The incubation is terminated by addition of commercially available yttrium silicate scintillation proximity assay (SPA) beads containing zinc sulphate. The yttrium silicate beads preferentially bind linear nucleotides, thus the product of the enzyme reaction, [^3H]-5′AMP binds to the bead to produce a light signal, which is detected by a scintillation counter. The amount of signal produced directly correlates with the amount of product formed, and thus the activity of the enzyme. The maximum signal is obtained where enzyme and substrate are incubated alone. The background signal is measured from wells either containing no enzyme, or from wells containing a supra-maximal concentration of a known PDE 7A/7B/1C inhibitor. Each purified batch of enzyme is quality controlled and its Km, Vmax and specific activity determined from kinetic studies before use in compound inhibition studies. The inhibition of the enzyme, by a test compound, is calculated relative to the maximum and background responses.
(§3) The compound of Example 75 of WO 02/074754, 5′-carboxypropoxy-8′-chloro-spiro[cyclohexane-1-4′-(3′,4′-dihydro)quinazolin]-2′(1′H)-one (referred to as compound A hereafter) was used as a standard for PDE7A and PDE7B. The compound of Example 32 of WO 02/074754, 4-(8′-chloro-2′-oxo-2′,3′-dihydro-1′H-spiro[cyclohexane-1,4′-quinazolin]-6′-yl)benzoic acid (referred to as compound B hereafter) was used as a standard for PDE1C.
(§4) The optimisation of this assay has been carried out using cell lysate containing full length PDE7A, PDE7B and PDE1C enzyme. The concentration of the enzyme in this cell lysate sample is unknown, so the specific activity of the cell lysate is used as a measure to ensure that the same activity per well is used despite any batch-to-batch variation of concentration/activity.
(§5) PDE7A/7B/1C stock enzyme was prepared and kept at −20° C. in appropriately sized aliquots to reduce the number of freeze/thaw cycles. […] PDE7A is diluted to 1/8000, PDE7B to 1/10000 and PDE1C to 1/200000.
The final assay [cAMP]=75 nM therefore the required solution [cAMP]=0.15 μM (1/2 dilution in assay plate)
(§6) 1 μl test compound was transferred into a suitable multi-well assay plate immediately prior to reagent assay addition, 14 μl enzyme solution was then added to the assay plate, followed by 15 μl substrate solution (ie: final assay volume 30 μl, with a final screening compound concentration of 1 μM for PDE7A and PDE7B and 10 μM for PDE1C). The plate was then sealed using a plate sealer and incubated at room temperature for 45 min on the plate shaker.
(§7) 30 μl Yttrium Silicate PDE4 SPA beads were then added, ensuring constant stirring of the beads to give even distribution in the assay plate. The plate was then sealed using a plate sealer and incubated at room temperature for 30 mins on the plate shaker. The beads were then allowed to settle for 30 mins, before spinning the plates for 1 min at 200 g.
(§8) The plates were then read on a suitable radioactive counter, for example NXT-TopCount™ (available from Perkin Elmer) using the relevant protocol (30 second read time per well).
(§9) The data was fitted to a sigmoid curve using a least squares algorithm.
(§10) The IC50 value was converted to a value using the Cheng-Prussof equation: […]

PDE7A = target: T2, PDE7A (Homo sapiens, UniProt Q13946); assay: PDE7A [3H]-cAMP scintillation proximity assay (SPA) enzyme inhibition; conditions: for Ki: full length PDE7A in cell lysate, ~25 nM cAMP, Ki from IC50 by Cheng-Prussof equation; for 1C/7A selectivity: ratio PDE1C Ki / PDE7A Ki
T2 construct: cell lysate containing full length PDE7A, PDE7B and PDE1C enzyme; made in house; host or cells: cell lysate
Procedure: as §1, §2, §3, §4, §5
(§11) The final assay [cAMP] of ˜25 nM is required, so ˜50 nM [^3H]-cAMP was prepared. 9 ml of substrate solution was prepared by mixing 10.8 μl of [^3H]-cAMP (available from Amersham) with 8975 μl of assay buffer.
as §6, §7, §8, §9, §10

PDE7B = target: T3, PDE7B (Homo sapiens, UniProt Q9NP56); assay: PDE7B [3H]-cAMP scintillation proximity assay (SPA) enzyme inhibition; conditions: for Ki: full length PDE7B in cell lysate, ~25 nM cAMP, Ki from IC50 by Cheng-Prussof equation; for 1C/7B selectivity: ratio PDE1C Ki / PDE7B Ki
T3 construct: cell lysate containing full length PDE7A, PDE7B and PDE1C enzyme; made in house; host or cells: cell lysate
Procedure: as §1, §2, §3, §4, §5, §11, §6, §7, §8, §9, §10

T1 sequence (Q14123 whole entry): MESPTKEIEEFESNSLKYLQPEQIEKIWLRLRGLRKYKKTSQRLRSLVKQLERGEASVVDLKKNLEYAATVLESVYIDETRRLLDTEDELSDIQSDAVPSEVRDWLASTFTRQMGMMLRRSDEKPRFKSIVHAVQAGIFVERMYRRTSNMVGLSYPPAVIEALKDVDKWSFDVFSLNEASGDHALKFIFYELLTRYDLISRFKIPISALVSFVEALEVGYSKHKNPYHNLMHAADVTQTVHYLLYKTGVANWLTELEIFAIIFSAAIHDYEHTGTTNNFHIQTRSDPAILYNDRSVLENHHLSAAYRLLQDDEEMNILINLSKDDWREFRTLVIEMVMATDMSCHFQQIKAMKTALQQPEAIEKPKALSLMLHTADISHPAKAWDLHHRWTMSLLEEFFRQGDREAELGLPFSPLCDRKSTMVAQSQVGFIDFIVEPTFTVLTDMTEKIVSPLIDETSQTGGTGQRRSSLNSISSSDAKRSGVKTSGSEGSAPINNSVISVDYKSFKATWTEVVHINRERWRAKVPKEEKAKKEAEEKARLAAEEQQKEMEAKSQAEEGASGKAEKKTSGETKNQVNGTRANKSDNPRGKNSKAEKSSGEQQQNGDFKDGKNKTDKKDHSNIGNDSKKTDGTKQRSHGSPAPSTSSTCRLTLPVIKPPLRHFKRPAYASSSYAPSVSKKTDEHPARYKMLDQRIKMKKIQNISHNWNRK
T3 sequence (Q9NP56 whole entry): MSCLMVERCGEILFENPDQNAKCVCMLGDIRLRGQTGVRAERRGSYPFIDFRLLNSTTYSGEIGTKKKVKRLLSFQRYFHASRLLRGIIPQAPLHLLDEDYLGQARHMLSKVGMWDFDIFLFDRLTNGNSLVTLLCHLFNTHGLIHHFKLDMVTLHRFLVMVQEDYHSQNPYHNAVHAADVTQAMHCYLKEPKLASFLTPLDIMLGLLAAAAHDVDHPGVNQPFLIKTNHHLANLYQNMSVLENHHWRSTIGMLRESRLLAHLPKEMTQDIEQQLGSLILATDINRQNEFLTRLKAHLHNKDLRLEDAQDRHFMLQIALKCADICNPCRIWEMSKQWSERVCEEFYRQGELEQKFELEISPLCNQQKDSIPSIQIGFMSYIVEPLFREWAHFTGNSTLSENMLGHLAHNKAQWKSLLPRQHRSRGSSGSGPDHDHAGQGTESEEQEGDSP
T2 sequence (Q13946 whole entry): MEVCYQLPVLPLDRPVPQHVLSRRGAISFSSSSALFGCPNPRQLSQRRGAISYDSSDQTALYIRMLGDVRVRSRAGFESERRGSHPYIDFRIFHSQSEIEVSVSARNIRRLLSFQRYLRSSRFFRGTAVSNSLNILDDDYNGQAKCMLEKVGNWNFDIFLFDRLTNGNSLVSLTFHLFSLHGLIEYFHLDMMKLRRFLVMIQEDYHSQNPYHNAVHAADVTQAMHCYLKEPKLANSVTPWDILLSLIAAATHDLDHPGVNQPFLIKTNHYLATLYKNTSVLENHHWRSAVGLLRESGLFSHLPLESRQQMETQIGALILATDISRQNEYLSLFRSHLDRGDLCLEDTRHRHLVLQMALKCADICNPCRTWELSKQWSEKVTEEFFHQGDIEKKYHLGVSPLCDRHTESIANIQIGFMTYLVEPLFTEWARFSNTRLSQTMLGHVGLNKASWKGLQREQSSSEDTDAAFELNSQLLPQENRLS

Row | SMILES | Ki (PDE1C) [nM] | Ki (PDE7A) [nM] | 1C/7A selectivity (PDE7A) | Ki (PDE7B) [nM] | 1C/7B selectivity (PDE7B)
1 | O=C1Nc2c(Cl)cc(-c3ccc(C(=O)O)cc3)cc2C2(CCCCC2)N1 [Compound B, 4-(8′-chloro-2′-oxo-2′,3′-dihydro-1′H-spiro[cyclohexane-1,4′-quinazolin]-6′-yl)benzoic acid, reference compound] | 1.4 | 1.5 | 0.97 | 39 | 0.04
2 | O=C1Nc2c(Cl)ccc(-c3ccc(F)c(C(=O)O)c3)c2C2(CCCCC2)N1 [Example 1, 5-[(8′-chloro-2′-oxo-2′,3′-dihydro-1′H-spiro[cyclohexane-1,4′-quinazolin]-5′-yl)]-2-fluorobenzoic acid] | > 5600 | 3.2 | >1750 | 32 | >175
3 | O=C1Nc2c(Cl)ccc(-c3cccc(C(=O)O)c3)c2C2(CCCCC2)N1 [Example 2] | > 5630 | 3.1 | >1810 | 12 | >477
4 | O=C1Nc2c(Cl)ccc(-c3ccc(F)c(-c4nn[nH]n4)c3)c2C2(CCCCC2)N1 [Example 4] | 1560 | 7.5 | 207 | 45 | 35
5 | O=C(O)COc1cccc(-c2ccc(Cl)c3c2C2(CCCCC2)NC(=O)N3)c1 [Example 5, [3-(8′-chloro-2′-oxo-2′,3′-dihydro-1′H-spiro[cyclohexane-1,4′-quinazolin]-5′-yl)phenoxy]acetic acid] | > 5730 | 4.5 | >1260 | 51 | >113

The remaining lines, values ahead:

Row | Ki (PDE1C) [nM] | Ki (PDE7A) [nM] | 1C/7A selectivity (PDE7A) | Ki (PDE7B) [nM] | 1C/7B selectivity (PDE7B) | SMILES
6 | 305 | 6.7 | 45 | 33 | 9.2 | O=C1Nc2c(Cl)ccc(OCc3ccc(C(=O)O)o3)c2C2(CCCCC2)N1 [Compound C, 5-{[(8′-chloro-2′-oxo-2′,3′-dihydro-1′H-spiro[cyclohexane-1,4′-quinazolin]-5′-yl)oxy]methyl}-2-furoic acid, reference compound]
7 | 2430 | 11 | 218 | 101 | 24 | O=C1Nc2c(Cl)ccc(-c3ccc(C(=O)O)c(F)c3)c2C2(CCCCC2)N1 [Example 3, 5-[(8′-chloro-2′-oxo-2′,3′-dihydro-1′H-spiro[cyclohexane-1,4′-quinazolin]-4′-yl)]-2-fluorobenzoic acid]
8 | 584 | 1.7 | 336 | 3.4 | 172 | O=C1Nc2c(Cl)ccc(Oc3c(F)cccc3C(=O)O)c2C2(CCCCC2)N1 [Example 6, 2-{(8′-chloro-2′-oxo-2′,3′-dihydro-1′H-spiro[cyclohexane-1,4′-quinazolin]-5′-yl)oxy}-3-fluorobenzoic acid]
9 | 2260 | 11 | 201 | 21 | 107 | O=C1Nc2c(Cl)ccc(Oc3c(F)cccc3C(=O)O)c2C2(CCCC2)N1 [Example 7, 2-{(8′-chloro-2′-oxo-2′,3′-dihydro-1′H-spiro[cyclopentane-1,4′-quinazolin]-5′-oxy}-3-fluorobenzoic acid]
10 | 1810 | 4.8 | 380 | 9.4 | 192 | O=C1Nc2c(Cl)ccc(Oc3c(Cl)cccc3C(=O)O)c2C2(CCCCC2)N1 [Example 8, 3-chloro-2-{(8′-chloro-2′-oxo-2′,3′-dihydro-1′H-spiro[cyclohexane-1,4′-quinazolin]-5′-yl)oxy}benzoic acid]
11 |  | < 0.05 | >282 |  |  | O=C(O)Cc1cccc(F)c1Oc1ccc(Cl)c2c1C1(CCCCC1)NC(=O)N2 [Example 22, {2-[(8′-chloro-2′-oxo-2′,3′-dihydro-1′H-spiro[cyclohexane-1,4′-quinazolin]-5′-yl)oxy]-3-fluorophenyl}acetic acid]
